Reference: patent US10233209B2, “Inhibitors of the farnesoid x receptor and uses in medicine” (The United States of America, as represented by the …, priority 2013, dated 2019)

How the values were obtained:
human FXR = target: T1, human FXR (Homo sapiens, UniProt Q96RI1); assay: human FXR competition assay (GAL4-FXR chimeric receptor luciferase, HEK293T); assay type: cell-based; details: in the presence of GW4064
T1 construct: expressed in transfected cells; host or cells: HEK293T
T1 sequence (Q96RI1 262-486 limits assumed): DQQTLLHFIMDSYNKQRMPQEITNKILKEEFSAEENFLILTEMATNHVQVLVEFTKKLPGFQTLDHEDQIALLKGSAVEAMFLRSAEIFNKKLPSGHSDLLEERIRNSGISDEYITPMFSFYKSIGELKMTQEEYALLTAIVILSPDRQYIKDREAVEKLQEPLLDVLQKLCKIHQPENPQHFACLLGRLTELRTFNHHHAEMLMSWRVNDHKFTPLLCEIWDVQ
Procedure: Luciferase detection was conducted using the Dual Luciferase Reporter Assay kit (Promega Corp., Madison, Wis.) and a Tecan GeniosPro luminescent plate reader (Research Triangle Park, N.C.).
Luciferase detection was conducted using the Dual Luciferase Reporter Assay kit (Promega; Madison, Wis.) and a Tecan GeniosPro™ luminescent plate reader (Research Triangle Park, N.C.).

primary hepatocytes = assay: ceramide treatment of cultured primary hepatocytes; assay type: cell-based, mouse
Procedure: Primary hepatocytes from 6-week-old C57BL/6N mice were obtained by collagenase 1 (Invitrogen, Carlsbad, Calif.) perfusion. The cells were purified by 45% Percoll (Sigma, St. Louis, Mo.) density centrifugation and cultured in DMEM (Invitrogen, Carlsbad, Calif.) with 10% fetal bovine serum and 1% Insulin-Transferrin-Selenium-Ethanolamine (ITS-X) (Invitrogen, Carlsbad, Calif.). The viability of hepatocytes was determined using trypan blue dye exclusion, and those with higher than 85% viability were used. The medium was changed to DMEM with 1% fetal bovine serum after culturing for 4 hours. After starvation for 4 hours, the cells were exposed to ceramide. At the prescribed time points, cells were harvested and subjected to qPCR analysis and TG content detection.
The mucosa of intestine was gently scraped and liver was taken and both were flash frozen in liquid nitrogen and stored at −80° C. until RNA was prepared. RNA was extracted from frozen intestine and liver using TRIzol reagent (Invitrogen, Carlsbad, Calif.). cDNA was synthesized from 1 μg total RNA using Superscript II reverse transcriptase (Invitrogen, Carlsbad, Calif.). qPCR primers were designed with qPrimerDepot. Measured mRNA levels were normalized to those of 18S ribosomal RNA and expressed as fold change relative to those of control group.
Liver whole-cell or nuclear extracts were prepared. Membranes were incubated with antibodies against FXR (Santa Cruz Biotechnology, Inc., Santa Cruz, Calif.), SREBP1 (BD Biosciences, San Jose, Calif.), and CIDEA (Abcam, Cambridge, Mass.). The signals obtained were normalized to β-ACTIN (Abcam) for whole cell extract and LAMIN A/C (Santa Cruz) for nuclear extracts.

Row | Compound | FXR activity induced by synthetic agonist GW4064 (luciferase, normalized to Renilla) (human FXR) | mRNA of fatty acid synthesis and TG formation genes (Srebp1c, Cidea, Elovl6, Dgat2) (primary hepatocytes; 16 hours, 2, 5, 10 μM ceramide) | mRNA of fatty acid β-oxidation genes (Cpt1, Acox1, Ehhadh, Acaa1a) (primary hepatocytes; 16 hours, 2, 5, 10 μM ceramide) | triglyceride contents in primary hepatocytes (primary hepatocytes; 24 hours, 2, 5, 10 μM ceramide) | protein levels of nuclear SREBP1-N and CIDEA (primary hepatocytes; ceramide 2 μM and 10 μM, 24 hours)
1 | C[C@H](CCC(=O)NCCS(=O)(=O)O)[C@H]1CC[C@H]2[C@@H]3[C@@H](O)[C@H](O)[C@@H]4C[C@H](O)CC[C@]4(C)[C@H]3CC[C@]12C [TWMCA] | inhibited FXR | – | – | – | –
2 | C[C@H](CCC(=O)NCCS(=O)(=O)O)[C@H]1CC[C@H]2[C@@H]3[C@H](O)[C@@H](O)[C@@H]4C[C@H](O)CC[C@]4(C)[C@H]3CC[C@]12C [TαMCA] | inhibited FXR | – | – | – | –
3 | ceramide | – | significantly upregulated | not affected | significantly increased triglyceride contents | significantly induced
